# Data reported in patent US20250230193A1, “CYCLIC COMPOUND HAVING SELECTIVE KRAS INHIBITORY EFFECT ON HRAS AND NRAS” (CHUGAI SEIYAKU KABUSHIKI KAISHA, priority 2022, published 2025).
# Key:
# [1] = molecular target: GDP-bound NRAS wild-type protein (Homo sapiens, UniProt P01111); assay: Binding to NRAS by surface plasmon resonance (SPR), Single Cycle Kinetics; settings: KD ratio NRAS/KRAS, class symbols
# [2] = molecular target: GDP-bound HRAS wild-type protein (Homo sapiens, UniProt P01112); assay: Binding to HRAS by surface plasmon resonance (SPR), Single Cycle Kinetics; settings: KD ratio HRAS/KRAS, class symbols
# Sequence of GDP-bound HRAS wild-type protein (P01112 whole entry): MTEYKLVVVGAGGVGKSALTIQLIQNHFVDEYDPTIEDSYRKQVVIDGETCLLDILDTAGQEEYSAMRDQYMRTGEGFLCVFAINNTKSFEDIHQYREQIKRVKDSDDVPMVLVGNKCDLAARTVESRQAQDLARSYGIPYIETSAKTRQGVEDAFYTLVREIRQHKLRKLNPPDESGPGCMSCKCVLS
# Sequence of GDP-bound NRAS wild-type protein (P01111 whole entry): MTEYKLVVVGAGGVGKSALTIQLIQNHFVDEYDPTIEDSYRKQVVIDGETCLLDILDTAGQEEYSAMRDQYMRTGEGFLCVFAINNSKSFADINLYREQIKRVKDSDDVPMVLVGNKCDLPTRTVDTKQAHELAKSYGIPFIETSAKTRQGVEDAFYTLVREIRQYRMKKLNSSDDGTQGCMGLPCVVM
SMILES,NRAS/KRAS (ratio of KD value with respect to GDP-bound NRAS wild-type protein to KD value with respect to KRAS) [1],HRAS/KRAS (ratio of KD value with respect to GDP-bound HRAS wild-type protein to KD value with respect to KRAS) [2]
CCO[C@@H]1C[C@H]2C(=O)NC3(CC(C)(C)C3)C(=O)N(C)[C@@H](C3CCCC3)C(=O)N(C)[C@H](C(=O)N(C)CC)CC(=O)N(C)[C@H]3CC/C=C/c4ccc(cc4)C[C@@H](C(=O)N(C)CC(=O)N[C@@H](CCc4ccc(Cl)c(Cl)c4)C(=O)N2C1)N1CC/C=C\C[C@@H](C1=O)N(C)C(=O)CN(C1CC1)C(=O)[C@H]([C@@H](C)CC)NC3=O [PP2598],A (a compound having 10 or more and less than 20 is denoted as A),A (a compound having 10 or more and less than 20 is denoted as A)
CCC(CC)[C@H]1C(=O)N(C)[C@H](C(=O)N(C)C)CC(=O)N(C)[C@H]2CCC/C=C/c3ccc(cc3)C[C@@H](C(=O)N(C)CC(=O)N[C@@H](CCc3cc(F)c(C(F)(F)F)c(F)c3)C(=O)N3CCC[C@H]3C(=O)NC3(CC(C)(C)C3)C(=O)N1C)N1CC/C=C\C[C@@H](C1=O)N(C)C(=O)CN(C)C(=O)[C@H]([C@@H](C)CC)NC2=O [PP2600],A (a compound having 10 or more and less than 20 is denoted as A),A (a compound having 10 or more and less than 20 is denoted as A)
CC[C@H](C)[C@@H]1NC(=O)[C@@H]2CCC/C=C/c3ccc(cc3)C[C@@H](C(=O)N(C)CC(=O)N[C@@H](CCc3ccc(Cl)c(Cl)c3)C(=O)N3CCC[C@H]3C(=O)NC3(CC(C)(C)C3)C(=O)N(C)[C@@H](C3CCCC3)C(=O)N(C)[C@H](C(=O)N(C)CC)CC(=O)N2C)N2CC/C=C\C[C@@H](C2=O)N(C)C(=O)CN(C)C1=O [PP2601],A (a compound having 10 or more and less than 20 is denoted as A),A (a compound having 10 or more and less than 20 is denoted as A)
CC[C@H](C)[C@@H]1NC(=O)[C@@H]2CCC/C=C/c3ccc(cc3)C[C@@H](C(=O)N(C)CC(=O)N[C@@H](CCc3ccc(Cl)c(Cl)c3)C(=O)N3CCC[C@H]3C(=O)NC3(CC(C)(C)C3)C(=O)N(C)[C@@H](C3CCCC3)C(=O)N(C)[C@H](C(=O)N3CCCC3)CC(=O)N2C)N2CC/C=C\C[C@@H](C2=O)N(C)C(=O)CN(C)C1=O [PP2602],A (a compound having 10 or more and less than 20 is denoted as A),A (a compound having 10 or more and less than 20 is denoted as A)
CCC(CC)[C@H]1C(=O)N(C)[C@H](C(=O)N(C)C)CC(=O)N(C)[C@H]2CCC/C=C/c3ccc(cc3)C[C@@H](C(=O)N(C)CC(=O)N[C@@H](CCc3ccc(Cl)c(Cl)c3)C(=O)N3CCC[C@H]3C(=O)NC3(CC(C)(C)C3)C(=O)N1C)N1CC/C=C\C[C@@H](C1=O)N(C)C(=O)CN(C)C(=O)[C@H]([C@@H](C)CC)NC2=O [PP2603],AA (a compound having 20 or more is denoted as AA),A (a compound having 10 or more and less than 20 is denoted as A)
CCC(CC)[C@H]1C(=O)N(C)[C@H](C(=O)N2CCCC2)CC(=O)N(C)[C@H]2CCC/C=C/c3ccc(cc3)C[C@@H](C(=O)N(C)CC(=O)N[C@@H](CCc3ccc(Cl)c(Cl)c3)C(=O)N3CCC[C@H]3C(=O)NC3(CC(C)(C)C3)C(=O)N1C)N1CC/C=C\C[C@@H](C1=O)N(C)C(=O)CN(C)C(=O)[C@H]([C@@H](C)CC)NC2=O [PP2604],AA (a compound having 20 or more is denoted as AA),A (a compound having 10 or more and less than 20 is denoted as A)
CCO[C@@H]1C[C@H]2C(=O)NC3(CCC3)C(=O)N(C)[C@@H](C(CC)CC)C(=O)N(C)[C@H](C(=O)N(C)C)CC(=O)N(C)[C@H]3CCCC/C=C/c4ccc(cc4)C[C@@H](C(=O)N(C)CC(=O)N[C@@H](CCc4ccc(Cl)c(Cl)c4)C(=O)N2C1)N1CC/C=C\C[C@@H](C1=O)N(C)C(=O)CN(C1CC1)C(=O)[C@H]([C@@H](C)CC)NC3=O [PP2605],AA (a compound having 20 or more is denoted as AA),A (a compound having 10 or more and less than 20 is denoted as A)
CCO[C@@H]1C[C@H]2C(=O)NC3(CC(C)(C)C3)C(=O)N(C)[C@@H](C(CC)CC)C(=O)N(C)[C@H](C(=O)N3CCCCC3)CC(=O)N(C)[C@@H](COC)C(=O)N[C@@H]([C@@H](C)CC)C(=O)N(C)CC(=O)N(C)[C@H]3C/C=C\CCN(C3=O)[C@@H](Cc3ccc(C(F)(F)F)cc3)C(=O)N(C)CC(=O)N[C@@H](CCc3cc(F)c(C(F)(F)F)c(F)c3)C(=O)N2C1 [PP2606],AA (a compound having 20 or more is denoted as AA),AA (a compound having 20 or more is denoted as AA)
CCC(CC)[C@H]1C(=O)N(C)[C@H](C(=O)N2CCCCC2)CC(=O)N(C)[C@@H](COC)C(=O)N[C@@H]([C@@H](C)CC)C(=O)N(C)CC(=O)N(C)[C@H]2C/C=C\CCN(C2=O)[C@@H](Cc2ccc(C(F)(F)F)cc2)C(=O)N(C)CC(=O)N[C@@H](CCc2cc(F)c(C(F)(F)F)c(F)c2)C(=O)N2C[C@H](OC(C)C)C[C@H]2C(=O)NC2(CC(C)(C)C2)C(=O)N1C [PP2608],AA (a compound having 20 or more is denoted as AA),A (a compound having 10 or more and less than 20 is denoted as A)
CCO[C@@H]1C[C@H]2C(=O)NC3(CC(C)(C)C3)C(=O)N(C)[C@@H](C(CC)CC)C(=O)N(C)[C@H](C(=O)N3CCCCC3)CC(=O)N(C)[C@@H](COC)C(=O)N[C@@H]([C@@H](C)CC)C(=O)N(C)CC(=O)N(C)[C@H]3C/C=C\CCN(C3=O)[C@@H](Cc3ccc(C(F)(F)F)cc3)C(=O)N(C)CC(=O)N[C@@H](CCc3ccc(Cl)c(Cl)c3)C(=O)N2C1 [PP2610],AA (a compound having 20 or more is denoted as AA),A (a compound having 10 or more and less than 20 is denoted as A)
CCC(CC)[C@H]1C(=O)N(C)[C@H](C(=O)N2CCCCC2)CC(=O)N(C)[C@@H](COC)C(=O)N[C@@H]([C@@H](C)CC)C(=O)N(C)CC(=O)N(C)[C@H]2C/C=C\CCN(C2=O)[C@@H](Cc2ccc(C(F)(F)F)cc2)C(=O)N(C)CC(=O)N[C@@H](CCc2ccc(Cl)c(Cl)c2)C(=O)N2C[C@H](OC(C)C)C[C@H]2C(=O)NC2(CC(C)(C)C2)C(=O)N1C [PP2612],AA (a compound having 20 or more is denoted as AA),A (a compound having 10 or more and less than 20 is denoted as A)
CCC[C@H]1C(=O)N[C@@H]([C@@H](C)CC)C(=O)N(C2CC2)CC(=O)N(C)[C@H]2C/C=C\CCN(C2=O)[C@@H](Cc2ccc(C)cc2)C(=O)N(C)CC(=O)N[C@@H](CCc2cc(F)c(C(F)(F)F)c(F)c2)C(=O)N2C[C@H](OC3CCC3)C[C@H]2C(=O)NC2(CC(C)(C)C2)C(=O)N(C)[C@@H](C2CCCC2)C(=O)N(C)[C@H](C(=O)N(C)C)CC(=O)N1C [PP2614],A (a compound having 10 or more and less than 20 is denoted as A),A (a compound having 10 or more and less than 20 is denoted as A)
CCC(CC)[C@H]1C(=O)N(C)[C@H](C(=O)N(C)C)CC(=O)N(C)[C@@H](COC)C(=O)N[C@@H]([C@@H](C)CC)C(=O)N(C2CC2)CC(=O)N(C)[C@H]2C/C=C\CCN(C2=O)[C@@H](CC2CCC(F)(F)CC2)C(=O)N(C)CC(=O)N[C@@H](CCc2cc(F)c(C(F)(F)F)c(F)c2)C(=O)N2C[C@H](OC3CCC3)C[C@H]2C(=O)NC2(CC(C)(C)C2)C(=O)N1C [PP2615],A (a compound having 10 or more and less than 20 is denoted as A),A (a compound having 10 or more and less than 20 is denoted as A)
CCC[C@H]1C(=O)N[C@@H]([C@@H](C)CC)C(=O)N(C2CC2)CC(=O)N(C)[C@H]2C/C=C\CCN(C2=O)[C@@H](Cc2ccc(C)cc2)C(=O)N(C)CC(=O)N[C@@H](CCc2ccc(Cl)c(Cl)c2)C(=O)N2C[C@H](OC3CCC3)C[C@H]2C(=O)NC2(CC(C)(C)C2)C(=O)N(C)[C@@H](C2CCCC2)C(=O)N(C)[C@H](C(=O)N(C)C)CC(=O)N1C [PP2616],A (a compound having 10 or more and less than 20 is denoted as A),A (a compound having 10 or more and less than 20 is denoted as A)
CC[C@H](C)[C@@H]1NC(=O)[C@H](COC)N(C)C(=O)C[C@@H](C(=O)N(C)C)N(C)C(=O)[C@H](C2CCCC2)N(C)C(=O)C2(CC(C)(C)C2)NC(=O)[C@@H]2C[C@@H](OC3CCC3)CN2C(=O)[C@H](CCc2cc(F)c(C(F)(F)F)c(F)c2)NC(=O)CN(C)C(=O)[C@H](CC2CCCCC2)N2CC/C=C\C[C@@H](C2=O)N(C)C(=O)CN(C2CC2)C1=O [PP2618],A (a compound having 10 or more and less than 20 is denoted as A),A (a compound having 10 or more and less than 20 is denoted as A)
